From ChEMBL document CHEMBL1152950, “Cytotoxic activity and inhibitory effect on nitric oxide production of triterpene saponins from the roots of Physospermum verticillatum (Waldst & Kit) (Apiaceae)” (Bioorg Med Chem, 2009) come the findings set out here.

Data set [1] deals with RAW264.7. Kind of data set: Antiinflammatory activity in LPS-stimulated mouse RAW264.7 cells assessed as inhibition of NO production after 24 hrs by Griess reagent method. Particulars: for IC50: RAW264.7, 24 h; call rule not given here. It is filed as functional, cell-based.
The test system of data set [2] is Radical scavenging activity. Nature of the data set: Antioxidant activity assessed as DPPH radical scavenging activity by spectrophotometry. It is filed as functional.
The test system of a further data set is Caco-2. Nature of the data set: Cytotoxicity against human Caco-2 cells after 48 hrs by SRB assay. Particulars: for IC50: Caco-2, 48 h. It is filed as functional, cell-based.
Data set [3] in a line: Cytotoxicity against human Huh-7D12 cells after 48 hrs by SRB assay. It is filed as functional, cell-based. Particulars: Huh-7D12, 48 h.
Data set [4] deals with MCF7. Kind of data set: Cytotoxicity against human MCF7 cells after 48 hrs by SRB assay. It is filed as functional, cell-based. Particulars: MCF7, 48 h. Background: The SRB assay estimates cell density from bound dye.
Another data set relates to A549. Nature of the data set: Cytotoxicity against human A549 cells after 48 hrs by SRB assay. Particulars: A549, 48 h. It is filed as functional, cell-based.
The test system of another data set is C32. Kind of data set: Cytotoxicity against human C32 cells after 48 hrs by SRB assay. It is filed as functional, cell-based. Particulars: for IC50: C32, 48 h.
Another data set concerns LNCaP. Nature of the data set: Cytotoxicity against human LNCAP cells after 48 hrs by SRB assay. It is filed as functional, cell-based.
In a further data set the test system is ACHN. Kind of data set: Cytotoxicity against human ACHN cells after 48 hrs by SRB assay. It is filed as functional, cell-based.
A further data set deals with COR-L23. Nature of the data set: Cytotoxicity against human COR-L23 cells after 48 hrs by SRB assay. It is filed as functional, cell-based. Particulars: for IC50: COR-L23, 48 h.
The next data set has as its system A-375. Nature of the data set: Cytotoxicity against human A375 cells after 48 hrs by SRB assay. Particulars: for IC50: A-375, 48 h. It is filed as functional, cell-based.
Data set [5] deals with RAW264.7. Kind of data set: Cytotoxicity against mouse RAW264.7 cells by MTT assay. It is filed as cell-based. For orientation: Formazan colour is commonly taken as a measure of viable cells.
Data set [6] is described as follows: Cytotoxicity against human 142BR cells after 48 hrs by SRB assay. It is filed as cell-based. Particulars: for IC50: Homo sapiens; for Activity: human.
A further data set deals with SK-OV-3. Nature of the data set: Cytotoxicity against human SKOV3 cells. It is filed as functional, cell-based.
The next data set relates to HL-60. Kind of data set: Cytotoxicity against human HL60 cells. It is filed as functional, cell-based.
Data set [7] has as its system MCF7. Kind of data set: Cytotoxicity against human MCF7 cells. It is filed as functional, cell-based.
The next data set relates to HT-29. Nature of the data set: Cytotoxicity against human HT-29 cells. It is filed as functional, cell-based.

In the case of `COc1ccc2c(c1)c(CC(=O)O)c(C)n2C(=O)c1ccc(Cl)cc1`, in the data set with RAW264.7 [1], the Activity entry is “Dose-dependent effect”.
As for `O=C1O[C@H]([C@@H](O)CO)C(O)=C1O` [ASCORBIC ACID], in [2] (read-out: IC50), the IC50 was 0.002 µM.
For the molecule `C[C@H]1O[C@@H](O[C@H]2CC[C@@]3(C)[C@@H](CC[C@]4(C)[C@@H]3C=C[C@]35OC[C@@]6(CCC(C)(C)C[C@H]63)[C@@H](O)C[C@]54C)[C@]2(C)CO)[C@H](O[C@@H]2O[C@H](CO)[C@@H](O)[C@H](O)[C@H]2O)[C@@H](O[C@@H]2O[C@H](CO)[C@@H](O)[C@H](O)[C@H]2O)[C@H]1O` [BUDDLEJASAPONIN IV], the Activity entry in the data set on Caco-2, with RAW264.7 [1], in the data set on C32, with ACHN, in the data set with COR-L23 and in the data set on A-375 was “Dose-dependent effect” each time. Moreover, the Activity result in data set [6] is “Dose-dependent effect”. The IC50 was 40.7 µM with Caco-2; more than 50 µM in data set [3]; 4.2 µM in the data set on RAW264.7 [1]; more than 50 µM in the data set on MCF7 [4]; 38.3 µM in the data set on A549; 26.9 µM in the data set with C32. Moreover, the IC50 was more than 50 µM in the data set on LNCaP; “Not Active” in data set [2]; 7.9 µM in the data set on ACHN; 0.4 µM in the data set on COR-L23; 14.6 µM with A-375; 10.6 µM with RAW264.7 [5]. The molecule also returned an IC50 in [6] of more than 50 µM.
Take `CC1(C)C[C@@H]2C3=CC[C@@H]4[C@@]5(C)CC[C@H](O[C@H]6OC[C@H](O)[C@H](O[C@@H]7O[C@H](CO)[C@@H](O)[C@H](O)[C@H]7O)[C@H]6O)C(C)(C)[C@@H]5CC[C@@]4(C)[C@]3(C)C[C@H](O)[C@@]2(CO)[C@H](OC(=O)c2ccccc2)C1` [GLOCHIERIOSIDE A]: the IC50 amounted to 22.7 µM with SK-OV-3, 5.5 µM in the data set with HL-60, 29.1 µM in the data set on MCF7 [7] and 6.8 µM with HT-29.
The corresponding values for `CC1(C)C[C@@H]2C3=CC[C@@H]4[C@@]5(C)CC[C@H](O[C@@H]6OC[C@@H](O)[C@H](O[C@@H]7O[C@H](CO)[C@@H](O)[C@H](O)[C@H]7O)[C@H]6O)C(C)(C)[C@@H]5CC[C@@]4(C)[C@]3(C)C[C@H](O)[C@@]2(CO)[C@H](OC(=O)c2ccccc2)C1` [GLOCHIERIOSIDE B] are 16 µM, 6.6 µM, 36.1 µM and 18.6 µM.
As to `CC(=O)O[C@H]1C(=O)[C@@]2(C)[C@H]([C@H](OC(=O)c3ccccc3)[C@]3(O)C[C@H](OC(=O)[C@H](O)[C@@H](NC(=O)c4ccccc4)c4ccccc4)C(C)=C1C3(C)C)[C@]1(OC(C)=O)CO[C@@H]1C[C@@H]2O` [PACLITAXEL], the Activity result (in the data set on Caco-2; in the data set on C32; in the data set with ACHN; in the data set on COR-L23; with A-375; in [6]) was “Dose-dependent effect” in each case. The same molecule yielded an IC50 with MCF7 [4] of 0.08 µM.
`C[C@H]1O[C@@H](O[C@H]2CC[C@@]3(C)[C@@H](CC[C@]4(C)[C@@H]3C=C[C@]35OC[C@@]6(CCC(C)(C)C[C@H]63)[C@@H](O)C[C@]54C)[C@]2(C)CO)[C@H](O)[C@@H](O[C@@H]2O[C@H](CO)[C@@H](O)[C@H](O)[C@H]2O)[C@H]1O` [SAIKOSAPONIN A]: the Activity result with Caco-2, in the data set with RAW264.7 [1], in the data set on C32, with ACHN, in the data set with COR-L23 and in the data set on A-375 was “Dose-dependent effect” in each case. Also, in data set [6], the Activity result is “Dose-dependent effect”. In addition, the IC50 in the data set with Caco-2 was 17.9 µM; in [3], more than 50 µM; in the data set with RAW264.7 [1], 102 µM; in the data set with MCF7 [4], more than 50 µM; with A549 it was 17.7 µM; in the data set with C32 it was 43.5 µM. Moreover, the IC50 in the data set with LNCaP is more than 50 µM; in [2], “Not Active”; in the data set with ACHN it was more than 50 µM; with COR-L23, 0.6 µM; in the data set on A-375 it was 23.9 µM; in the data set with RAW264.7 [5], more than 200 µM. Further, the IC50 in [6] is more than 50 µM.
With `C[C@H]1O[C@@H](O[C@H]2CC[C@@]3(C)[C@@H](CC[C@]4(C)[C@@H]3C=C[C@]35OC[C@@]6(CCC(C)(C)C[C@H]63)[C@@H](O)C[C@]54C)[C@]2(C)CO)[C@H](O)[C@@H](O[C@@H]2O[C@H](CO)[C@@H](O)[C@H](O[C@@H]3O[C@H](CO)[C@@H](O)[C@H](O)[C@H]3O[C@@H]3O[C@H](CO)[C@@H](O)[C@H](O)[C@H]3O)[C@H]2O)[C@H]1O` [SONGAROSAPONIN D], the Activity entry in the data set with Caco-2, in the data set with RAW264.7 [1], in the data set with C32, in the data set on ACHN, in the data set with COR-L23 and in the data set with A-375 was “Dose-dependent effect” throughout. Moreover, the Activity entry in [6] is “Dose-dependent effect”. The IC50 is 16.7 µM with Caco-2; more than 50 µM in data set [3]; 10.4 µM in the data set on RAW264.7 [1]; more than 50 µM in the data set on MCF7 [4]; 41.1 µM with A549; 14 µM in the data set with C32. In addition, the IC50 with LNCaP is more than 50 µM; in data set [2], “Not Active”; in the data set on ACHN it was 37.2 µM; in the data set on COR-L23 it was 0.4 µM; with A-375, 12.4 µM; in the data set with RAW264.7 [5], 56.1 µM. This molecule also showed an IC50 in data set [6] of more than 50 µM.
As to `CC[C@]1(O)C[C@@H]2CN(CCc3c([nH]c4ccccc34)[C@@](C(=O)OC)(c3cc4c(cc3OC)N(C)[C@H]3[C@@](O)(C(=O)OC)[C@H](OC(C)=O)[C@]5(CC)C=CCN6CC[C@]43[C@@H]65)C2)C1.O=S(=O)(O)O` [VINBLASTINE SULFATE], the Activity result (in the data set with Caco-2; in the data set with C32; with ACHN; in the data set on COR-L23; in the data set on A-375; in [6]) was “Dose-dependent effect” in each case. Besides, the IC50 in the data set on Caco-2 worked out at 69 µM; in data set [3], 45.6 µM; in the data set on C32, 3 µM; in the data set on LNCaP, 29.3 µM; in the data set with ACHN, 22.7 µM; in the data set on COR-L23 it was 45.5 µM. Besides, the values for the IC50 (in the data set with A-375; in [6]) were 7.2 µM and 37.6 µM, respectively.

As a reminder, the IC50 is the concentration that inhibits the measured activity by half.
